Measurements taken from article PMC11173677, “Identification and Evaluation of Olive Phenolics in the Context of Amine Oxidase Enzyme Inhibition and Depression: In Silico Modelling and In Vitro Validation” (Molecules, 2024).
Where two headings read alike, the source gives them in different places.

Key:
LSD1 [1] = biological target: T1, LSD1 (Homo sapiens, UniProt O60341); settings: in vitro assays; cited from earlier work
T1 construct: Reaction Biology Corporation (performed the assay)

BJ cells = assay: Viability of BJ cells (CellTiter-Blue Cell Viability Assay); type: cell-based, human; settings: for IC50: Homo sapiens, BJ
Experimental: The BJ cells were seeded at densities of 10,000 cells in black flat bottom 96-well plates (Nalge Nunc, Penfield, Rochester, NY, USA) and treated with a dose–response of OLC (0–500 μM) and OLP (0–500 μM) for 24 h, 48 h, 72 h, and 7 days at 37 °C, 5% (v/v) CO2. Cell viability was measured using the Cell-Titer Blue® Assay kit (Promega, Madison, WI, USA) according to the manufacturer’s instructions. Cell-Titer Blue reagent was added to each well and incubated for 4 h at 37 °C with 5% (v/v) CO2 before the fluorescence intensity was read using the CLARIOstar Microplate Reader (BMG Labtech, Ortenberg, Germany).
A Nikon Eclipse Ts2 light microscope (Nikon Ti TS2-S-SM, Tokyo, Japan) was used to image untreated and treated BJ cells (OLP or OLC: 0–100 μM) at 4× objective magnification at 20, 44, and 120 h (Figures S1 and S2).

LSD1 [2] = biological target: T1, LSD1; assay: LSD1 fluorescence coupling enzyme assay (Reaction Biology Corporation); type: biochemical; settings: Reaction Biology Corp., 30 min pre-incubation, 10 μM histone H3(1-21)K4me2 peptide substrate; read-out: IC50, LSD1 demethylase activity
Experimental: The inhibitory activity of HCl 489479, OLC, and OLP was measured using a fluorescence coupling enzyme assay (performed by Reaction Biology Corporation). […] All compounds were pre-incubated for 30 min with the enzyme before the addition of 10 μM histone H3(1-21)K4me2 peptide substrate to start the reaction. Fluorescence was measured using an EnVision Multimode Plate Reader at Ex/Em = 535/590.

purified MAO-A = biological target: T2, purified MAO-A (Homo sapiens, UniProt P21397); assay: MAO-A direct screening assay (inhibitor screening kit); type: biochemical; settings: purified enzyme; read-out: IC50, inhibition of MAO-A
T2 construct: purchased Sigma-Aldrich MAK295
T2 sequence (P21397 1-527): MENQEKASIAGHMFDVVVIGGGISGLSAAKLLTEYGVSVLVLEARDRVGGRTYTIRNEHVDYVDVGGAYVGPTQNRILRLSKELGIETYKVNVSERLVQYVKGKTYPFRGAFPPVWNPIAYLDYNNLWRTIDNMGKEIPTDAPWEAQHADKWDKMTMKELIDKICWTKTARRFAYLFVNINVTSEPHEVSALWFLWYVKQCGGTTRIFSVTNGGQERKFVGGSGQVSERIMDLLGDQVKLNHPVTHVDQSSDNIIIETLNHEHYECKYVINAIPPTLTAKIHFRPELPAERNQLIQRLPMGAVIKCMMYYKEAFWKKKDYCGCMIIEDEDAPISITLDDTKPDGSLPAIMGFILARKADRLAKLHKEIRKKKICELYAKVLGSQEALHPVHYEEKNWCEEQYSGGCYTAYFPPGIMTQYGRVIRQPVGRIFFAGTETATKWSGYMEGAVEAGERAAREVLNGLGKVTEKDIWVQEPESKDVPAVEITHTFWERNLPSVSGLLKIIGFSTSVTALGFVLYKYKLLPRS
Experimental: The assays were conducted for MAO-A and MAO-B according to the manufacturer’s instructions.

MAO-A [3] = tested on: T3, MAO-A; assay: MAO-A activity assay in corticosteroid-stimulated BJ cells; type: cell-based, human; settings: then 50 μM compound 24 h
T3 construct: endogenous in cells; host or cells: BJ human foreskin fibroblasts stimulated with DEX or HC
Experimental: (§1) The BJ cells were subsequently incubated with 10 μM HC or 100 μM DEX to stimulate MAO expression. […] The untreated BJ cells received normal growth medium. The cells were collected, homogenised, and analysed through Western blotting where the expression of MAO-A/B was determined through immunodetection of protein subtypes.
(§2) Activity assays were commercially sourced from BioVision (Abcam, BioVision ab241031, Waltham, MA, USA) and were performed according to manufacturer’s instructions. The treatment groups were plated in duplicate on a black, flat 96-well microplate. The cells were homogenised in assay buffer using a microtube mixer at 4 °C and centrifuged at 10,000× g for 10 min. A Bradford assay was performed to determine the total protein concentration within each cell pellet (200 μg/well for BJ cells, 40 μg/well for hESC-derived neurons). Approximately 40 μL of supernatant was loaded into wells along with 10 μL of either […], or assay buffer for total MAO activity. A H2O2 standard was pipetted as supplied and 50 μL of reaction mix was pipetted into all wells. Using a CLARIOstar Plus Microplate Reader, (BMG Labtech, Ortenberg, Germany), fluorescence was measured kinetically at 25 °C for 60 min with Ex/Em = 535/587 nm.

MAO-B [4] = tested on: T4, MAO-B; assay: MAO-B activity assay in corticosteroid-stimulated BJ cells; type: cell-based, human; settings: then 50 μM compound 24 h
T4 construct: endogenous in cells; host or cells: BJ human foreskin fibroblasts stimulated with DEX or HC
Experimental: as §1, §2

total MAO [5] = assay: Total MAO activity assay in corticosteroid-stimulated BJ cells; type: cell-based, human; settings: then 50 μM compound 24 h
Experimental: as §1, §2

MAO-A [6] = tested on: T3, MAO-A; assay: MAO-A activity assay in hESC-derived neurons stimulated with ATRA; type: cell-based, human; settings: 1 μM ATRA 24 h, then TCP 5 μM, OLC 50 μM or OLP 50 μM for 24 h
Experimental: (§3) An in vitro model of MDD was designed for stem cell-derived neuronal cells through incubation of 1 μM all-trans retinoic acid (Sigma-Aldrich PHR1187, St. Louis, MO, USA). All cell treatments were conducted in duplicate and replicated using independently differentiating neuronal plates.
as §2

MAO-B [7] = tested on: T4, MAO-B; assay: MAO-B activity assay in hESC-derived neurons stimulated with ATRA; type: cell-based, human; settings: 1 μM ATRA 24 h, then TCP 5 μM, OLC 50 μM or OLP 50 μM for 24 h
Experimental: as §3, §2

total MAO [8] = assay: Total MAO activity assay in hESC-derived neurons stimulated with ATRA; type: cell-based, human; settings: 1 μM ATRA 24 h, then TCP 5 μM, OLC 50 μM or OLP 50 μM for 24 h
Experimental: as §3, §2

MAO-A/B expression = assay: MAO-A/B protein expression in HC- or DEX-stimulated BJ cells (Western blotting); type: cell-based, human; settings: 10 μM HC 5 days or 100 μM DEX 7 days, then 50 μM compound; Western blot
Experimental: as §1

human skin fibroblasts = tested on: human skin fibroblasts; parameters: method as in PMID 37432217; settings: in comparison to untreated controls, at certain doses; cited from earlier work

IC50 (LSD1 [2]) [µM] | IC50 (purified MAO-A) [µM] | Compound | IC50 (LSD1 [1]) [µM] | relative viability of BJ cells at the highest concentration (BJ cells; 500 μM) | proliferation potential of BJ cells (BJ cells; 25, 50, 75 and 100 μM, similar to untreated cells) | IC50 (BJ cells; 24 h) [µM] | IC50 (BJ cells; 48 h) [µM] | toxicity to BJ cells at the concentrations used in further experiments (BJ cells; concentrations used in further experiments (50 μM)) | viability of BJ cells at lower concentrations (BJ cells; up to 200 μM) | MAO-A activity in BJ cells (MAO-A [3]; 10 μM HC 5 days) | MAO-A activity in BJ cells (MAO-A [3]; 100 μM DEX 7 days) | MAO-B activity in BJ cells (MAO-B [4]; 10 μM HC 5 days) | MAO-B activity in BJ cells (MAO-B [4]; 100 μM DEX 7 days) | total MAO activity in BJ cells (total MAO [5]; 10 μM HC 5 days) | total MAO activity in BJ cells (total MAO [5]; 100 μM DEX 7 days) | MAO-A activity in hESC-derived neurons (MAO-A [6]) | MAO-B activity in hESC-derived neurons (MAO-B [7]) | total MAO activity in hESC-derived neurons (total MAO [8]) | MAO enzyme expression within BJ cells (MAO-A/B expression) | growth capacity of human skin fibroblasts (human skin fibroblasts)
 |  | CC=C(C=O)C(CC=O)CC(=O)OCCc1ccc(O)c(O)c1 (stereo in doubt) [oleacein] | ~2.5 |  |  |  |  |  |  |  |  |  |  |  |  |  |  |  |  | 
12 | 1.9 | C/C=C(/C=O)[C@@H](CC=O)CC(=O)OCCc1ccc(O)cc1 [OLC, oleocanthal] |  | reduction | maintained their proliferation potential | 123 | 111 | non-toxic | largely maintained | downregulate | downregulate | downregulate | downregulate | downregulate | downregulate | significantly reduced | significantly reduced | significantly reduced | Potent inhibition | significantly increased
